Source: patent US9428504B2, “7-hydroxy-spiropipiperidine indolinyl antagonists of P2Y1 receptor” (BRISTOL-MYERS SQUIBB COMPANY, priority 2012, dated 2016)

Experiments:
[1] = molecular target: cloned human P2Y1 receptors (Homo sapiens (Human), UniProt P47900); experiment: Binding Assay B: Scintillation Proximity Assay (SPA) for P2Y1 binding; settings: SPA, [33P] 2MeS-ADP displacement; read-out: P2Y1 Ki (nM) using binding assay B
Experimental: A SPA membrane binding assay was used to identify inhibitors of [^33P] […] Binding reactions were performed in 384-well OptiPlates (PerkinElmer Life Sciences, Cat #6007299) in a volume of 50 μL containing ˜15 fmol of P2Y1 receptor (1.7 μg of total protein), 0.3 nM [^33P] […] Reactions were allowed to proceed to completion at room temperature for 1 hour followed by centrifugation of the plate for 5 min. About 40 μL of the aqueous solution was aspirated. Plates were sealed and the [^33P]

[2] = system: human platelet rich plasma (PRP); experiment: ADP induced platelet aggregation assay; settings: Homo sapiens, Platelet, read-out: PA IC50 (μM) @ 10 μM ADP, platelet aggregation induced by 10 μM ADP, human PRP

Sequence of cloned human P2Y1 receptors (P47900 whole entry): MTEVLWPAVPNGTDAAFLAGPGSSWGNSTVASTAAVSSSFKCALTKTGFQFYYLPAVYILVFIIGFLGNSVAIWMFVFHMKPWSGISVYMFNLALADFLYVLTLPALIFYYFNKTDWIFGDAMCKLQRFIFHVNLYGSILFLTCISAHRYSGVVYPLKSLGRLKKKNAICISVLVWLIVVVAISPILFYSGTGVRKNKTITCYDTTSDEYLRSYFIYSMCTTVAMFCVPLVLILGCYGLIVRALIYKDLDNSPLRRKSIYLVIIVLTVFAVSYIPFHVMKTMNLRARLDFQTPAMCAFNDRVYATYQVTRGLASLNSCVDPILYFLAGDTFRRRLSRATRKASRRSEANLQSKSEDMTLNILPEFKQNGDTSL

| SMILES | Ki [1] [nM] | IC50 [2] [µM] |
| --- | --- | --- |
| CC(C)(C)CN1CCC2(CC1)CN(c1ccccc1NC(=O)Nc1nc3ccc(Cl)nc3s1)c1c(O)ccc(-c3nc4ccc(F)cc4s3)c12 [Example 144, 1-(5-Chlorothiazolo[5,4-b]pyridin-2-yl)-3-(2-(4-(6-fluorobenzo[d]thiazol-2-yl)-7-hydroxy-1′-neopentylspiro[indoline-3,4′-piperidin]-1-yl)phenyl)urea] | 13 | 0.7 |
| CC(C)(C)CN1CCC2(CC1)CN(c1ccccc1NC(=O)Nc1csc(C(F)(F)F)n1)c1c(O)ccc(-c3nc4cc(Cl)ccc4s3)c12 [Example 120, 1-(2-(4-(5-Chlorobenzo[d]thiazol-2-yl)-7-hydroxy-1′-neopentylspiro[indoline-3,4′-piperidin]-1-yl)phenyl)-3-(2-(trifluoromethyl)thiazol-4-yl)urea] | 28.5 | 0.6 |
| CC(C)(C)CN1CCC2(CC1)CN(c1ccccc1NC(=O)Nc1nc3ccc(F)nc3s1)c1c(O)ccc(F)c12 [Example 174, 1-(2-(4-Fluoro-7-hydroxy-1′-neopentylspiro[indoline-3,4′-piperidine]-1-yl)phenyl)-3-(5-fluorothiazolo[5,4-b]pyridin-2-yl)urea] | 7 | 0.2 |
| CC(C)(C)CN1CCC2(CC1)CN(c1ccccc1NC(=O)Nc1nc3ccc(Cl)cc3s1)c1c(O)cc(F)c(-c3nc4cc(Cl)ccc4s3)c12 [Example 141, 1-(6-Chlorobenzo[d]thiazol-2-yl)-3-(2-(4-(5-chlorobenzo[d]thiazol-2-yl)-5-fluoro-7-hydroxy-1′-neopentylspiro[indoline-3,4′-piperidin]-1-yl)phenyl)urea] | 33.9 | 0.9 |
| CC(C)(C)CN1CCC2(CC1)CN(c1ccccc1NC(=O)Nc1nc3ccc(Cl)cc3s1)c1c(O)ccc(Cl)c12 [Example 38, 1-(2-(4-Chloro-7-hydroxy-1′-neopentylspiro[indoline-3,4′-piperidine]-1-yl)phenyl)-3-(6-chlorobenzo[d]thiazol-2-yl)urea] | 10 | 0.4 |
| CC(C)c1nc(NC(=O)Nc2ccccc2N2CC3(CCN(CC(C)(C)C)CC3)c3c(C(F)(F)F)ccc(O)c32)cs1 [Example 28, 1-(2-(7-Hydroxy-1′-neopentyl-4-(trifluoromethyl)spiro[indoline-3,4′-piperidine]-1-yl)phenyl)-3-(2-isopropylthiazol-4-yl)urea] | 6.6 | 0.8 |
| COc1ccc2nc(NC(=O)Nc3ccccc3N3CC4(CCN(CC(C)(C)C)CC4)c4c(-c5nc6cc(Cl)ccc6s5)ccc(O)c43)sc2c1 [Example 150, 1-(2-(4-(5-Chlorobenzo[d]thiazol-2-yl)-7-hydroxy-1′-neopentylspiro[indoline-3,4′-piperidin]-1-yl)phenyl)-3-(6-methoxybenzo[d]thiazol-2-yl)urea] | 33.4 | 0.9 |
| CC(C)CN1CCCC1c1ccc(NC(=O)Nc2ccccc2N2CC3(CCN(CC(C)(C)C)CC3)c3c(Cl)ccc(O)c32)cc1 (centres unmarked) [Example 57, 1-(2-(4-Chloro-7-hydroxy-1′-neopentylspiro[indoline-3,4′-piperidine]-1-yl)phenyl)-3-(4-(1-isobutylpyrrolidin-2-yl)phenyl)urea] | 10.4 | 0.2 |
| CC(C)(C)CN1CCC2(CC1)CN(c1ccccc1NC(=O)Nc1csc(Cl)n1)c1c(O)ccc(-c3nc4ccc(F)cc4s3)c12 [Example 114, 1-(2-Chlorothiazol-4-yl)-3-(2-(4-(6-fluorobenzo[d]thiazol-2-yl)-7-hydroxy-1′-neopentylspiro[indoline-3,4′-piperidin]-1-yl)phenyl)urea] | 5.6 | 0.1 |
| CC(C)(C)CN1CCC2(CC1)CN(c1ccc(C#N)cc1NC(=O)Nc1nc3ccc(F)cc3s1)c1c(O)ccc(Cl)c12 [Example 70, 1-(2-(4-Chloro-7-hydroxy-1′-neopentylspiro[indoline-3,4′-piperidine]-1-yl)-5-cyanophenyl)-3-(6-fluorobenzo[d]thiazol-2-yl)urea] | 29.4 | 1 |
